In PMC8225008, “Development of Non-Ethoxypropanoic Acid Type Cryptochrome Inhibitors with Circadian Molecular Clock-Enhancing Activity by Bioisosteric Replacement” (Pharmaceuticals, 2021):

What was measured:
hCRY2 = biological target: T1, hCRY2 (Homo sapiens, UniProt Q49AN0); assay: Surface plasmon resonance, CRY2; format: binding; conditions: SPR, His-tagged CRY2, Langmuir 1:1 model
T1 construct: GST; purchased MyBioSource; host or cells: baculovirus expression system
T1 sequence (Q49AN0 1-593): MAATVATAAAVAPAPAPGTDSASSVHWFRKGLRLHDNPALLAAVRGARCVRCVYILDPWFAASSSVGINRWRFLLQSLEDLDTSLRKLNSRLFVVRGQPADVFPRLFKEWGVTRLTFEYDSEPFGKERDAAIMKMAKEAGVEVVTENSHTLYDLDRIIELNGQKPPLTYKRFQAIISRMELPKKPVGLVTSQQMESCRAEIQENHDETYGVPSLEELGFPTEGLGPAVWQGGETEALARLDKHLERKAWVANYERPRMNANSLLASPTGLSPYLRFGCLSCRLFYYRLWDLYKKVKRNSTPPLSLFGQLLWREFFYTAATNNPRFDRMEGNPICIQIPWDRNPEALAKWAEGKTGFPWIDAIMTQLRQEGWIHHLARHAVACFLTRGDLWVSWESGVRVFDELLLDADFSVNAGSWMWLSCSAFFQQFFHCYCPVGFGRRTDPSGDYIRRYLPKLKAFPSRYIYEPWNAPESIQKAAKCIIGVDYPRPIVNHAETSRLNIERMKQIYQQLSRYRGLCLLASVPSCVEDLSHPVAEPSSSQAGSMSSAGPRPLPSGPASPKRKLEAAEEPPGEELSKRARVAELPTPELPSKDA
Description: We used a ProteOn XPR36 system (Bio-Rad, Hercules, CA, USA) equipped with a HTE sensor chip (high capacity tris-NTA for histidine-tagged […] capture, Bio-Rad) for surface plasmon resonance analyses. Purified target proteins (6xHis- and GST-tagged hCRY1 and hCRY2) were prepared by a baculovirus expression system (MyBioSource, San Diego, CA, USA). Phosphate buffered saline (PBS) plus 0.005% Tween 20 was used as the running buffer. The 6xHis-hCRY1 and 6xHis-hCRY2 proteins were immobilized onto separate channels of a HTE chip by injecting 210 μL protein sample (2.0 μg/mL) into flow cells (30 μL/min) to allow saturation. Serially diluted compound 2d samples (50–800 μM) were prepared in 4% DMSO in TBS-T buffer. […] Recorded resonance units (RU) were normalized and plotted against chemical concentration. […]
(§1) The EC50 values for luciferase reporter assay were calculated based on a logistic four-parametric equation using the mean values of intrinsic activation (SigmaPlot 10.0; Systat Software Inc., San Jose, CA, USA). The IC50 and t1/2 values for the cytochrome P450 inhibition assay and metabolic stability test were calculated by WinNonlin software (Pharsight, Mountain View, CA, USA). Pharmacokinetic parameters were calculated using non-compartmental analysis (WinNonlin v.8.3; Pharsight, Mountain View, CA, USA). […]

CYP2C19 = biological target: T2, CYP2C19 (Homo sapiens, UniProt P33261); assay: Cytochrome P450 inhibition assay (cocktail method, human liver microsomes), omeprazole hydroxylation; format: in vitro ADME
T2 construct: pooled human liver microsomes (HLMs, XTreme 200, XenoTech, Lenexa, KS, USA); tissue XenoTech XTreme 200; host or cells: pooled human liver microsomes
Description: The inhibitory effects of KS15 and compound 5d on the metabolism of five cytochrome P450 (P450) probe substrates were evaluated using previous methods with slight modifications. The following P450 probe substrates were used: phenacetin (100 μM) for CYP1A2, tolbutamide (100 μM) for CYP2C9, omeprazole (20 μM) for CYP2C19, dextromethorphan (5 μM) for CYP2D6, and midazolam (5 μM) for CYP3A. Incubation mixtures containing pooled human liver microsomes (HLMs, XTreme 200, XenoTech, Lenexa, KS, USA), P450 probe substrates, and KS15 or compound 5d (final concentrations: 0, 0.5, 2, 5, 20, and 50 μM) were preincubated for 5 min at 37 °C. […] After centrifugation at 18,000× g (5 min, 4 °C), supernatant aliquots were analyzed by liquid chromatography-tandem mass spectrometry (LC-MS/MS). […]
All metabolites and IS were separated on a Kinetex C18 column (100 mm × 2.1 mm, 2.6 μm ID., Phenomenex, Torrance, CA, USA) and analyzed using an LC-MS/MS system (LCMS 8060, Shimadzu, Tokyo, Japan) equipped with an electrospray ionization (ESI) interface. […]
as §1, with “The IC50 and t1/2 values for the cytochrome P450 inhibition assay and metabolic stability test were calculated by WinNonlin software (Pharsight, Mountain View, CA, USA).” left out

T2 sequence (P33261 whole entry): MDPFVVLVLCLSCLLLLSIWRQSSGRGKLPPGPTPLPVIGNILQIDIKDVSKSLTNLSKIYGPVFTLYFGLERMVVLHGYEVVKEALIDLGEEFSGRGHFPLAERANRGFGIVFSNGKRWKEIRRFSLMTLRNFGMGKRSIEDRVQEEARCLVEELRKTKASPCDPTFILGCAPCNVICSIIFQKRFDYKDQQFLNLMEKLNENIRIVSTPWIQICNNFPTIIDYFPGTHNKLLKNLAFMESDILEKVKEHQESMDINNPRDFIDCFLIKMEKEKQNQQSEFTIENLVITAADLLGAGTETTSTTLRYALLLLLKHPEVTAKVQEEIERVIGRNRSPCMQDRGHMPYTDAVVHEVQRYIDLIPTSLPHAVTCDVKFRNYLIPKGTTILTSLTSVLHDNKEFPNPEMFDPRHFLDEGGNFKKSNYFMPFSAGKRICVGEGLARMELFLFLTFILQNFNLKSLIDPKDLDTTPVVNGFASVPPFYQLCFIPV

Compound	Kd (hCRY2) [µM]	IC50 (CYP2C19) [µM]
CC(=NOCc1ccc([N+](=O)[O-])cc1)c1cccc(OCC(=O)O)c1 [Compound 2d, 2-(3-(1-(((4-nitrobenzyl)oxy)imino)ethyl)phenoxy)acetic acid]	380	–
COC(=O)COc1cccc(C(C)=NOCc2ccc([N+](=O)[O-])cc2)c1 [Compound 5d, Methyl 2-(3-(1-(((4-nitrobenzyl)oxy)imino)ethyl)phenoxy)acetate]	–	> 50
